Assay results published in patent publication US20150018311A1, “THERAPEUTIC BORON-CONTAINING COMPOUNDS” (priority 2012, published 2015).

Assays:
Experiment in all cases: Growth in liquid media in presence of test compound
Format in all cases: cell-based
[1] = system: Mycobacterium tuberculosis (H37Rv)
[2] = system: Candida albicans (ATCC 90028)
[3] = system: Escherichia coli (ATCC 25922)
[4] = system: Pseudomonas aeruginosa (ATCC 27853)
[5] = system: Staphylococcus aureus (ATCC 25923)
[6] = system: Streptococcus pyogenes (ATCC 19615)

SMILES	Growth in the presence of test compound, M. tuberculosis ([1]; 5 mg/L)	Growth in the presence of test compound, M. tuberculosis ([1]; 50 mg/L)	Growth in the presence of test compound, M. tuberculosis ([1]; 500 mg/L)	Growth in the presence of test compound, C. albicans ([2]; 5 mg/L)	Growth in the presence of test compound, C. albicans ([2]; 50 mg/L)	Growth in the presence of test compound, C. albicans ([2]; 500 mg/L)	Growth in the presence of test compound, E. coli ([3]; 5 mg/L)	Growth in the presence of test compound, E. coli ([3]; 50 mg/L)	Growth in the presence of test compound, E. coli ([3]; 500 mg/L)	Growth in the presence of test compound, P. aeruginosa ([4]; 5 mg/L)	Growth in the presence of test compound, P. aeruginosa ([4]; 50 mg/L)	Growth in the presence of test compound, P. aeruginosa ([4]; 500 mg/L)	Growth in the presence of test compound, S. aureus ([5]; 5 mg/L)	Growth in the presence of test compound, S. aureus ([5]; 50 mg/L)	Growth in the presence of test compound, S. aureus ([5]; 500 mg/L)	Growth in the presence of test compound, S. pyogenes ([6]; 5 mg/L)	Growth in the presence of test compound, S. pyogenes ([6]; 50 mg/L)	Growth in the presence of test compound, S. pyogenes ([6]; 500 mg/L)
Cl.Cl.NCCCC[C@@H](N)C(=O)NC[C@@H](Cc1ccc(OC(F)(F)F)cc1)B(O)O [Compound 43]	+	+	−	+	+	±	+	+	−	+	+	−	+	+	−	+	+	−
CC1(C)C2CC3OB(CC(Cc4ccccc4)NC(=O)C(N)CCCCN)OC3(C)C1C2 (stereo not drawn) [Compound 44]	+	+	−	+	+	±	+	+	−	+	+	−	+	+	−	+	+	−
CC1(C)C2CC3OB(C[C@@H](Cc4ccccc4)NC(=O)[C@H](Cc4ccccc4)NC(=O)[C@@H](N)Cc4ccccc4)O[C@]3(C)C1C2.Cl (stereo partly drawn) [Compound 45]	+	−	+	+	+	−	+	+	+	+	+	+	+	±	+	+	+	+
Cl.Cl.NCCCC[C@H](N)C(=O)NC[C@@H](Cc1ccc(F)cc1)B(O)O [Compound 46]	−	−	−	+	+	±	+	+	+	+	+	+	+	+	+	+	+	+
CC1(C)C2CC3OB(C(CNC(=O)C(N)CCCCN)Cc4ccc(OC(F)(F)F)cc4)OC3(C)C1C2.Cl.Cl (stereo not drawn) [Compound 47]	+	−	−	+	+	−	+	+	−	+	+	−	+	+	−	+	+	−
Cl.Cl.NCCCC[C@@H](N)C(=O)NC[C@@H](Cc1ccccc1)B(O)O [Compound 48]	±	−	−	+	+	+	+	+	+	+	+	+	+	+	+	+	+	+
CC1(C)C2CC3OB([C@@H](CNC(=O)[C@@H](N)Cc4ccccc4)Cc4ccc(F)cc4)O[C@]3(C)C1C2.Cl (stereo partly drawn) [Compound 49]	±	−	−	+	+	+	+	+	+	+	+	+	+	+	+	+	+	+
Cl.N[C@@H](Cc1ccccc1)C(=O)NC[C@@H](Cc1ccc(F)cc1)B(O)O [Compound 50]	±	−	−	+	+	+	+	+	−	+	+	±	+	+	−	+	+	−
CC1(C)C2CC3OB(C(CNC(=O)C(N)CCCCN)Cc4ccc(F)cc4)OC3(C)C1C2.Cl.Cl (stereo not drawn) [Compound 51]	+	−	−	+	+	−	+	+	−	+	+	−	+	+	−	+	+	−
Cl.Cl.NCCCC[C@H](N)C(=O)NC[C@@H](Cc1ccc(OC(F)(F)F)cc1)B(O)O [Compound 52]	±	±	−	+	+	−	+	+	+	+	+	+	+	+	+	+	+	±
